What all share (assay): relative viability (nuclei count vs DMSO), 5 days (fraction); higher = more cells survive
Compound in test [1]: CC(C)C[C@H](NC(=O)[C@H](Cc1ccccc1)NC(=O)c1cnccn1)B(O)O [Bortezomib] + Cc1nc(NC(=O)N2CCC[C@H]2C(N)=O)sc1-c1ccnc(C(C)(C)C(F)(F)F)c1 [Alpelisib] (partner 2 µM)
The method, boiled down: (§1)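 A single step with final 0.05% Triton X-100, 1% formaldehyde and 1 ug/ml Hoechst fixed the cells and stained nuclei 5 days after treatment. Lung cancer cell lines in 1536-well plates had been treated by pin tool the day after seeding with one drug alone or a fixed anchor-drug dose plus five library-drug doses (not always all listed) in √10 steps, and nuclei were counted on 4× images. Relative viability is the ratio of nuclei in treated wells to nuclei in vehicle wells, taken as the median of duplicate plates.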

Compound in test [2]: COC1=CC(c2cc3ccccc3[nH]2)=N/C1=C\c1[nH]c(C)cc1C [Obatoclax] + Cc1nc(NC(=O)N2CCC[C@H]2C(N)=O)sc1-c1ccnc(C(C)(C)C(F)(F)F)c1 [Alpelisib] (partner 2 µM)
The method, boiled down:
as §1

Compound in test [3]: CC(C)C[C@H](NC(=O)[C@H](Cc1ccccc1)NC(=O)c1cnccn1)B(O)O [Bortezomib] + CS(=O)(=O)CCNCc1ccc(-c2ccc3ncnc(Nc4ccc(OCc5cccc(F)c5)c(Cl)c4)c3c2)o1 [Lapatinib] (partner 2 µM)
The method, boiled down: as §1

Compound in test [4]: COC1=CC(c2cc3ccccc3[nH]2)=N/C1=C\c1[nH]c(C)cc1C [Obatoclax] + Cc1nc(Nc2ncc(C(=O)Nc3c(C)cccc3Cl)s2)cc(N2CCN(CCO)CC2)n1 [Dasatinib] (partner 0.075 µM)
The method, boiled down:
as §1

On to NCI-H727, for which the relative viability came out at 0.5 in test [1] (first compound 0.0002 µM); 0.514 in test [1] (first compound 0.000632 µM); 0.494 in test [1] (first compound 0.002 µM); 0.14 in test [1] (first compound 0.006325 µM); 0.106 in test [1] (first compound 0.02 µM); 0.575 in test [2] (first compound 0.01 µM). For the same cell line, the relative viability is 0.578 in test [2] (first compound 0.03162 µM); 0.405 in test [2] (first compound 0.1 µM); 0.475 in test [2] (first compound 0.3162 µM); 0.245 in test [2] (first compound 1 µM); 0.654 in test [3] (first compound 0.0002 µM); 0.872 in test [3] (first compound 0.000632 µM). In addition, the relative viability was 0.864 in test [3] (first compound 0.002 µM); 0.229 in test [3] (first compound 0.006325 µM); 0.113 in test [3] (first compound 0.02 µM); 0.438 in test [4] (first compound 0.01 µM); 0.287 in test [4] (first compound 0.03162 µM); 0.512 in test [4] (first compound 0.1 µM). In addition, the figures for the relative viability in test [4] (first compound 0.3162 µM) and in test [4] (first compound 1 µM) were 0.39 and 0.348, respectively.
NCI-H1944: the relative viability was determined as 0.807 in test [1] (first compound 0.0002 µM); 0.79 in test [1] (first compound 0.000632 µM); 0.764 in test [1] (first compound 0.002 µM); 0.84 in test [1] (first compound 0.006325 µM); 0.154 in test [1] (first compound 0.02 µM); 0.808 in test [2] (first compound 0.01 µM). For the same cell line, the relative viability in test [2] (first compound 0.03162 µM) turned out to be 0.817; in test [2] (first compound 0.1 µM) it was 0.859; in test [2] (first compound 0.3162 µM), 0.89; in test [2] (first compound 1 µM) it was 0.839; in test [3] (first compound 0.0002 µM), 0.883; in test [3] (first compound 0.000632 µM), 0.774. In addition, the relative viability in test [3] (first compound 0.002 µM) is 0.929; in test [3] (first compound 0.006325 µM) it was 0.809; in test [3] (first compound 0.02 µM), 0.328; in test [4] (first compound 0.01 µM), 0.206; in test [4] (first compound 0.03162 µM) it was 0.198; in test [4] (first compound 0.1 µM), 0.198. Besides, the relative viability in test [4] (first compound 0.3162 µM) is 0.242; in test [4] (first compound 1 µM), 0.223.
Regarding NCI-H1437, the relative viability came out at 0.951 in test [1] (first compound 0.0002 µM); 0.975 in test [1] (first compound 0.000632 µM); 1.05 in test [1] (first compound 0.002 µM); 0.0854 in test [1] (first compound 0.006325 µM); 0.0875 in test [1] (first compound 0.02 µM); 0.97 in test [2] (first compound 0.01 µM). The relative viability in test [2] (first compound 0.03162 µM) was 0.922; in test [2] (first compound 0.1 µM), 0.962; in test [2] (first compound 0.3162 µM), 1.01; in test [2] (first compound 1 µM), 0.88; in test [3] (first compound 0.0002 µM) it was 0.655; in test [3] (first compound 0.000632 µM), 0.878. Besides, the relative viability in test [3] (first compound 0.002 µM) worked out at 0.806; in test [3] (first compound 0.006325 µM) it was 0.0943; in test [3] (first compound 0.02 µM) it was 0.0863; in test [4] (first compound 0.01 µM), 0.559; in test [4] (first compound 0.03162 µM), 0.295; in test [4] (first compound 0.1 µM), 0.384. Further, the relative viability came to 0.355 in test [4] (first compound 0.3162 µM) and 0.445 in test [4] (first compound 1 µM).
For NCI-H441, the relative viability in test [1] (first compound 0.0002 µM) was 0.613; in test [1] (first compound 0.000632 µM), 0.58; in test [1] (first compound 0.002 µM), 0.19; in test [1] (first compound 0.006325 µM), 0.132; in test [1] (first compound 0.02 µM), 0.111; in test [2] (first compound 0.01 µM), 0.662. Moreover, the relative viability in test [2] (first compound 0.03162 µM) turned out to be 0.822; in test [2] (first compound 0.1 µM), 0.632; in test [2] (first compound 0.3162 µM), 0.419; in test [2] (first compound 1 µM), 0.327; in test [4] (first compound 0.01 µM), 0.537; in test [4] (first compound 0.03162 µM), 0.634. Moreover, the relative viability in test [4] (first compound 0.1 µM) turned out to be 0.542; in test [4] (first compound 0.3162 µM), 0.402; in test [4] (first compound 1 µM) it was 0.208.
On to EMC-BAC-2, for which the relative viability was found to be 0.657 in test [1] (first compound 0.0002 µM); 0.73 in test [1] (first compound 0.000632 µM); 0.788 in test [1] (first compound 0.002 µM); 0.17 in test [1] (first compound 0.006325 µM); 0.117 in test [1] (first compound 0.02 µM); 0.658 in test [2] (first compound 0.01 µM). The relative viability in test [2] (first compound 0.03162 µM) came to 0.797; in test [2] (first compound 0.1 µM), 0.744; in test [2] (first compound 0.3162 µM) it was 0.738; in test [2] (first compound 1 µM), 0.696; in test [3] (first compound 0.0002 µM), 0.902; in test [3] (first compound 0.000632 µM) it was 0.923. Also, the relative viability in test [3] (first compound 0.002 µM) worked out at 0.966; in test [3] (first compound 0.006325 µM), 0.652; in test [3] (first compound 0.02 µM) it was 0.153; in test [4] (first compound 0.01 µM) it was 0.357; in test [4] (first compound 0.03162 µM), 0.325; in test [4] (first compound 0.1 µM), 0.255. Also, the relative viability in test [4] (first compound 0.3162 µM) stood at 0.264; in test [4] (first compound 1 µM), 0.284.
Take NCI-H647: the relative viability in test [1] (first compound 0.0002 µM) turned out to be 1.07; in test [1] (first compound 0.000632 µM) it was 1.24; in test [1] (first compound 0.002 µM) it was 0.881; in test [1] (first compound 0.006325 µM), 0.0394; in test [1] (first compound 0.02 µM) it was 0.0242; in test [2] (first compound 0.01 µM), 1.09. The relative viability in test [2] (first compound 0.03162 µM) came to 1.3; in test [2] (first compound 0.1 µM), 0.875; in test [2] (first compound 0.3162 µM), 0.265; in test [2] (first compound 1 µM) it was 0.148; in test [3] (first compound 0.0002 µM), 1.05; in test [3] (first compound 0.000632 µM), 1.05. Besides, the relative viability in test [3] (first compound 0.002 µM) amounted to 0.711; in test [3] (first compound 0.006325 µM), 0.0371; in test [3] (first compound 0.02 µM), 0.0208; in test [4] (first compound 0.01 µM), 0.258; in test [4] (first compound 0.03162 µM), 0.164; in test [4] (first compound 0.1 µM) it was 0.149. Besides, the relative viability came to 0.0862 in test [4] (first compound 0.3162 µM) and 0.0719 in test [4] (first compound 1 µM).
With CAL-12T, the relative viability is 1.26 in test [1] (first compound 0.0002 µM); 1.05 in test [1] (first compound 0.000632 µM); 1.11 in test [1] (first compound 0.002 µM); 0.175 in test [1] (first compound 0.006325 µM); 0.115 in test [1] (first compound 0.02 µM); 1.14 in test [2] (first compound 0.01 µM). Besides, the relative viability came to 1.29 in test [2] (first compound 0.03162 µM); 1.01 in test [2] (first compound 0.1 µM); 0.695 in test [2] (first compound 0.3162 µM); 0.129 in test [2] (first compound 1 µM); 0.683 in test [3] (first compound 0.0002 µM); 0.617 in test [3] (first compound 0.000632 µM). The relative viability in test [3] (first compound 0.002 µM) worked out at 0.561; in test [3] (first compound 0.006325 µM) it was 0.246; in test [3] (first compound 0.02 µM) it was 0.201; in test [4] (first compound 0.01 µM), 0.419; in test [4] (first compound 0.03162 µM) it was 0.414; in test [4] (first compound 0.1 µM) it was 0.426. In addition, the relative viability in test [4] (first compound 0.3162 µM) was 0.0751; in test [4] (first compound 1 µM) it was 0.0688.
Consider EBC-1, for which the relative viability was 0.869 in test [1] (first compound 0.0002 µM); 0.727 in test [1] (first compound 0.000632 µM); 0.29 in test [1] (first compound 0.002 µM); 0.126 in test [1] (first compound 0.006325 µM); 0.0969 in test [1] (first compound 0.02 µM); 0.82 in test [2] (first compound 0.01 µM). The relative viability in test [2] (first compound 0.03162 µM) was 0.92; in test [2] (first compound 0.1 µM) it was 0.902; in test [2] (first compound 0.3162 µM) it was 0.435; in test [2] (first compound 1 µM), 0.251; in test [3] (first compound 0.0002 µM), 0.221; in test [3] (first compound 0.000632 µM), 0.228. Also, the relative viability in test [3] (first compound 0.002 µM) was 0.204; in test [3] (first compound 0.006325 µM) it was 0.164; in test [3] (first compound 0.02 µM) it was 0.151.

These data come from the supplement of paper PMC10307832.
